Experimental data published in US8476265B2, “Compounds-801” (AstraZeneca AB, priority 2010, dated 2013).

What was measured:
Adrenergic β2 = molecular target: T1, Adrenergic β2 (Homo sapiens, UniProt P07550); assay: Adrenergic β2 mediated cAMP production in H292 cells, single concentration 1 μM; assay type: cell-based; settings: NCI-H292, 1 μM compound, cAMP as percentage of the maximum response generated by 1E-07M formoterol, read-out: β2 % effect @1 uM
T1 construct: Adherent H292 cells are removed from tissue culture flasks by treatment with Accutase™ cell detachment solution; endogenous in cells; host or cells: H292 cells
In short: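 H292 cells pretreated with rolipram (300 μM final) 10 min, then compound at 1 μM final, 1% DMSO, 60 min at room temperature in HBSS/10 mM HEPES pH 7.4/5 mM glucose. Lysate cAMP quantified by AlphaScreen against a standard curve, as % of maximal response to 1E-07M formoterol.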

[1] = molecular target: T2, human muscarinic acetylcholine M3 receptor (Homo sapiens, UniProt P20309); assay: Muscarinic 3 receptor binding assay ([3H]NMS competition, SPA), single concentration 1 μM; settings: 1 μM compound; % inhibition specific [3H]-NMS binding
T2 construct: expressed in transfected cells; host or cells: CHO-K1 (Chinese Hamster Ovary) cell membranes
In short: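 CHO-K1 membranes expressing human M3 on SPA beads, competition with 0.1 nM [3H]NMS (quarter Kd) in 20 mM HEPES pH 7.4, 5 mM MgCl2, 0.1% BSA, 1% DMSO; compound at 1 μM. 16 h at room temperature. Value is % inhibition of specific binding, non-specific defined with 1 μM atropine.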

T1 sequence (P07550 whole entry): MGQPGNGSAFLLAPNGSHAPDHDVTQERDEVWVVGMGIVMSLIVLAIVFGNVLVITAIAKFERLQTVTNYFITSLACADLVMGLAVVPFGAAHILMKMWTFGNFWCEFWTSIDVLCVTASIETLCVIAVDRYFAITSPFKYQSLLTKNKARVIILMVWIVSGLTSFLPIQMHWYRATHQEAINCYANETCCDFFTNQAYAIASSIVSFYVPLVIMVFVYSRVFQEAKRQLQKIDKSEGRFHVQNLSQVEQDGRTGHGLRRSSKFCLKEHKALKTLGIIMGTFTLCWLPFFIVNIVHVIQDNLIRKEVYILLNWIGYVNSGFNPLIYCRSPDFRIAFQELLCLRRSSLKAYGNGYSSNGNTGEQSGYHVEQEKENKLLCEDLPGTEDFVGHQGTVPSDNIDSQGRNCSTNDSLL
T2 sequence (P20309 whole entry): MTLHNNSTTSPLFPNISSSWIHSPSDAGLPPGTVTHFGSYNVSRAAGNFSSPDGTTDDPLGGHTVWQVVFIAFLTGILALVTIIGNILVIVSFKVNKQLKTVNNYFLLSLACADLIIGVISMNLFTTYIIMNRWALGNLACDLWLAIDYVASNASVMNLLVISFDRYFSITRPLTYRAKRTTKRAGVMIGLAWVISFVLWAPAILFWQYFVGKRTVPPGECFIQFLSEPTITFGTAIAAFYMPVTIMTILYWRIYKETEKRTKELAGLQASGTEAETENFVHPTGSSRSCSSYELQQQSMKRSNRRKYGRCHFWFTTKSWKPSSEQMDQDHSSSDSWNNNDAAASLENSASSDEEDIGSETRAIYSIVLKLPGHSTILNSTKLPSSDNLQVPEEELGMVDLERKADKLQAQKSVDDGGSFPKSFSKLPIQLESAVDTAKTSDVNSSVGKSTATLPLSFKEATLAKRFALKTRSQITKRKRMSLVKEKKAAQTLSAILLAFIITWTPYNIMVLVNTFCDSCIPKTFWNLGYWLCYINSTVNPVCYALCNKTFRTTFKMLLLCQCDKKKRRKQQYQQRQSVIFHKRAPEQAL

`CCCC(C)C(=O)N1CCOC2(CCN(Cc3cccc(CCOCCC(=O)N(CCNCCc4ccc(O)c5c4OCC(=O)N5)C4CCCCC4)c3)CC2)C1` (centres unmarked) [Example 160, N-Cyclohexyl-N-(2-(2-(5-hydroxy-3-oxo-3,4-dihydro-2H-benzo[b][1,4]oxazin-8-yl)ethylamino)ethyl)-3-(3-((4-(2-methylpentanoyl)-1-oxa-4,9-diazaspiro[5.5]undecan-9-yl)methyl)phenethoxy)propanamide] showed a percent of formoterol maximum response at 1 µM (Adrenergic β2) of 79% and an inhibition at 1 µM [1] of 99%.

`O=C1COc2c(CCNCCN(C(=O)CCOCCc3cccc(CN4CCC5(CC4)CN(C(=O)CC4C[C@@H]6CC[C@H]4C6)CCO5)c3)C3CCCCC3)ccc(O)c2N1` (stereo partly drawn) [Example 131, 3-(3-((4-(2-((1S,4R)-Bicyclo[2.2.1]heptan-2-yl)acetyl)-1-oxa-4,9-diazaspiro[5.5]undecan-9-yl)methyl)phenethoxy)-N-cyclohexyl-N-(2-(2-(5-hydroxy-3-oxo-3,4-dihydro-2H-benzo[b][1,4]oxazin-8-yl)ethylamino)ethyl)propanamide] showed a percent of formoterol maximum response at 1 µM (Adrenergic β2) of 97% and an inhibition at 1 µM [1] of 99%.

Work on `O=C1COc2c(CCNCCN(C(=O)CCOCCc3cccc(CN4CCC5(CC4)CN(C(=O)c4cccc6[nH]ccc46)CCO5)c3)C3CCCCC3)ccc(O)c2N1` [Example 168, 3-(3-((4-(1H-Indole-4-carbonyl)-1-oxa-4,9-diazaspiro[5.5]undecan-9-yl)methyl)phenethoxy)-N-cyclohexyl-N-(2-(2-(5-hydroxy-3-oxo-3,4-dihydro-2H-benzo[b][1,4]oxazin-8-yl)ethylamino)ethyl)propanamide] yielded a percent of formoterol maximum response at 1 µM (Adrenergic β2) of 103% and an inhibition at 1 µM [1] of 92%.

In the case of `O=C1COc2c(CCNCCN(C(=O)CCOCCc3cccc(CN4CCC5(CC4)CN(C(=O)C4CC=CCC4)CCO5)c3)C3CCCCC3)ccc(O)c2N1` (centres unmarked) [Example 105, 3-(3-((4-(Cyclohex-3-enecarbonyl)-1-oxa-4,9-diazaspiro[5.5]undecan-9-yl)methyl)phenethoxy)-N-cyclohexyl-N-(2-(2-(5-hydroxy-3-oxo-3,4-dihydro-2H-benzo[b][1,4]oxazin-8-yl)ethylamino)ethyl)propanamide], the percent of formoterol maximum response at 1 µM (Adrenergic β2) is reported as 109% and the inhibition at 1 µM [1] is reported as 99%.

`Cc1ccc2nc(C(=O)N3CCOC4(CCN(Cc5cccc(CCOCCC(=O)N(CCNCCc6ccc(O)c7c6OCC(=O)N7)C6CCCCC6)c5)CC4)C3)cn2c1` [Example 172, N-Cyclohexyl-N-(2-(2-(5-hydroxy-3-oxo-3,4-dihydro-2H-benzo[b][1,4]oxazin-8-yl)ethylamino)ethyl)-3-(3-((4-(6-methylimidazo[1,2-a]pyridine-2-carbonyl)-1-oxa-4,9-diazaspiro[5.5]undecan-9-yl)methyl)phenethoxy)propanamide] gave a percent of formoterol maximum response at 1 µM (Adrenergic β2) of 94% and an inhibition at 1 µM [1] of 91%.

Compound `O=C1COc2c(CCNCCN(C(=O)CCOCCc3cccc(CN4CCC5(CC4)CN(C(=O)Cc4c[nH]c6ccccc46)CCO5)c3)C3CCCCC3)ccc(O)c2N1` [Example 141, 3-(3-((4-(2-(1H-Indol-3-yl)acetyl)-1-oxa-4,9-diazaspiro[5.5]undecan-9-yl)methyl)phenethoxy)-N-cyclohexyl-N-(2-(2-(5-hydroxy-3-oxo-3,4-dihydro-2H-benzo[b][1,4]oxazin-8-yl)ethylamino)ethyl)propanamide] has a percent of formoterol maximum response at 1 µM (Adrenergic β2) of 108% and an inhibition at 1 µM [1] of 96%.

In the case of `CCOc1ccccc1C(=O)N1CCOC2(CCN(Cc3cccc(CCOCCC(=O)N(CCNCCc4ccc(O)c5c4OCC(=O)N5)C4CCCCC4)c3)CC2)C1` [Example 111, N-Cyclohexyl-3-(3-((4-(2-ethoxybenzoyl)-1-oxa-4,9-diazaspiro[5.5]undecan-9-yl)methyl)phenethoxy)-N-(2-(2-(5-hydroxy-3-oxo-3,4-dihydro-2H-benzo[b][1,4]oxazin-8-yl)ethylamino)ethyl)propanamide], the percent of formoterol maximum response at 1 µM (Adrenergic β2) is reported as 107% and the inhibition at 1 µM [1] is reported as 96%.
